The source of these data is patent US7723363B2, “2-pyridinylethylcarboxamide derivatives and their use as fungicides” (Bayer Cropscience SA, priority 2004, dated 2010).

One data set has as its system Botrytis cinerea. As to the kind of experiment: Effectiveness on Botrytis cinerea. Type of data set: in vivo. The following applies: at 330 ppm; comparison compounds of WO 01/11965.
Another data set relates to Alternaria brassicae. Put plainly: In vivo test on Alternaria brassicae (leaf spot of crucifers). The following applies: at 330 ppm; comparison compounds of WO 01/11965. The protocol:
The active ingredient tested is prepared by potter homogenisation in a concentrated suspension type formulation at 100 g/l. This suspension is then diluted with water to obtain the desired active material concentration.
Radish plants (Pernot variety) in starter cups, sown on a 50/50 peat soil-pozzolana substrate and grown at 18-20° C., are treated at the cotyledon stage by spraying with the aqueous suspension described above.
Plants, used as controls, are treated with an aqueous solution not containing the active material.
After 24 hours, the plants are contaminated by spraying them with an aqueous suspension of Alternaria brassicae spores (40,000 spores per cm^3). The spores are collected from a 12-13-day-old culture.
The contaminated radish plants are incubated for 6-7 days at about 18° C., under a humid atmosphere.
Grading is carried out 6 to 7 days after the contamination, in comparison with the control plants.

The next data set deals with Peronospora parasitica. As to the kind of experiment: Efficacy against Peronospora parasitica. Particulars: at 330 ppm; comparison compound of WO 01/11965. The class given is in vivo.

As to `CNC(=O)C(Cc1ncc(C(F)(F)F)cc1Cl)NC(=O)c1ccc(-c2ccccc2)cc1` (stereo not shown) [compound 316, N-{1-methylcarbamoyl-2-[3-chloro-5-(trifluoromethyl)-2-pyridinyl]-ethyl}-4-phenylbenzamide], the “effectiveness on Botrytis cinerea” value in the data set with Botrytis cinerea is given as “zero effectiveness”. Moreover, in the data set with Alternaria brassicae, the “effectiveness on Alternaria brassicae” value was “poor effectiveness”.
In the case of `O=C(Cc1cccs1)NCc1ncc(C(F)(F)F)cc1Cl` [compound 101, N-{[3-chloro-5-(trifluoromethyl)-2-pyridinyl]methyl}-5-thienylacetamide], the “effectiveness on Botrytis cinerea” value with Botrytis cinerea is listed as “no efficacy”. Further, the “effectiveness on Alternaria brassicae” value in the data set on Alternaria brassicae is on record as “poor efficacy”. Besides, the “efficacy against Peronospora parasitica” value in the data set on Peronospora parasitica is recorded as “no efficacy”.
`CCNC(=O)C(Cc1ncc(C(F)(F)F)cc1Cl)NC(=O)c1cccc([N+](=O)[O-])c1` (stereo not shown) [compound 307, N-{1-ethylcarbamoyl-2-[3-chloro-5-(trifluoromethyl)-2-pyridinyl]ethyl}-3-nitrobenzamide]: the “effectiveness on Botrytis cinerea” value in the data set on Botrytis cinerea was “zero effectiveness”. The “effectiveness on Alternaria brassicae” value with Alternaria brassicae is reported as “poor effectiveness”.
Consider `CNC(=O)C(Cc1ncc(C(F)(F)F)cc1Cl)NC(=O)c1ccc(OC)cc1` (stereo not shown) [compound 315, N-{1-methylcarbamoyl-2-[3-chloro-5-(trifluoromethyl)-2-pyridinyl]ethyl}-4-methoxybenzamide], for which, in the data set on Botrytis cinerea, the “effectiveness on Botrytis cinerea” value is “zero effectiveness”.
Regarding `CCNC(=O)C(Cc1ncc(C(F)(F)F)cc1Cl)NC(=O)c1ccccc1` (stereo not shown) [compound 304, N-{1-ethylcarbamoyl-2-[3-chloro-5-(trifluoromethyl)-2-pyridinyl]-ethyl}-benzamide], in the data set with Botrytis cinerea, the “effectiveness on Botrytis cinerea” value is “zero effectiveness”.
Still for that read-out and setting: next, `CNC(=O)C(Cc1ncc(C(F)(F)F)cc1Cl)NC(=O)c1ccccc1` (stereo not shown) [compound 314, N-{1-methylcarbamoyl-2-[3-chloro-5-(trifluoromethyl)-2-pyridinyl]ethyl}-benzamide]: “zero effectiveness”; `CCNC(=O)C(Cc1ncc(C(F)(F)F)cc1Cl)NC(=O)c1ccc(Cl)cc1` (stereo not shown) [compound 306, N-{1-ethylcarbamoyl-2-[3-chloro-5-(trifluoromethyl)-2-pyridinyl]-ethyl}-4-chlorobenzamide]: “zero effectiveness”.
Same read-out and setting: next, `CCNC(=O)C(Cc1ncc(C(F)(F)F)cc1Cl)NC(=O)c1ccccc1Br` (stereo not shown) [compound 310, N-{1-ethylcarbamoyl-2-[3-chloro-5-(trifluoromethyl)-2-pyridinyl]ethyl}-2-bromobenzamide]: “zero effectiveness”.
As usually defined, the melting point is the temperature, or range, at which the solid turns liquid. Compound `O=C(NCC(C(=O)O)c1nc(F)c(Cl)cc1F)c1sccc1I` (stereo not shown) [Compound A-3] yielded a melting point of 192 °C.
